# Experimental data reported in publication PMC8769378, “Underlining the Importance of Peripheral Protic Functional Groups to Enhance the Proton Exchange of Gd-Based MRI Contrast Agents” (Inorganic Chemistry, 2021).
# Assay: Stability constants of Gd^III complexes (out-of-cell pH potentiometry)
# Type: physicochemical
# Procedure: The stability and protonation constants of Ca^2+, Zn^2+, and Cu^2+ complexes formed with the L1 ligand were determined by pH potentiometric titration. The metal-to-ligand concentration ratio was 1:1 (the concentration of the ligand was generally 0.002 M). The protonation constants of the GdL1 and GdL2 complexes were determined using pH potentiometry by titrating the preprepared complexes from pH = 3.0 to pH = 12 for GdL2 and from pH = 4.0 to pH = 12 for GdL1 with 0.2 M NaOH. The stability constants of GdL2 were determined by the “out-of-cell” technique because of the slow formation reaction. The pH range of the complexation equilibria and the time needed to reach the equilibria were determined by relaxometry for the formation of GdL2. […] For the calculation of the stability constants of GdL2, besides the protonation constants of ligands, the stability constants of the diprotonated *Gd(H2L2) out-of-cage complexes (considered as intermediates) were also used as fixed values, which were calculated from the pH potentiometric titration curve of the Gd^3+–L2 system obtained in the pH range 1.7–4.0.
# For the pH measurements and titrations, the Metrohm 888 Titrando titration workstation Metrohm-6.0234.110 combined electrode was used. […] For the calculation of [H^+] from the measured pH values, the method proposed by Irving et al. was used as follows.[34] […]
smiles,measurement,setting,value
"O=C(O)CN1CCN(CC(=O)O)CCN(C[C@@H](O)C(=O)O)CCN(CC(=O)O)CC1 [L2, (R)2,2′,2″-(10-(2-Carboxy-2-hydroxyethyl)-1,4,7,10-tetraazacyclododecane-1,4,7-triyl) Triacetic Acid]","GdL (log KGdL, stability constant)","I = 0.15 M NaCl, 298 K",19.26 (3)
same,"GdH2L (log K, stability constant of the protonated *Gd(H2L) out-of-cage intermediate)","KGd(H2L)=[Gd(H2L)]/[Gd3+][H2L], 0.15 M NaCl, 25 °C",6.73 (3)
